Experimental data published in patent US20260130907A1 (DANA-FARBER CANCER INSTITUTE, INC., priority 2022, published 2026).
≈ marks a conversion by molar mass, not a printed value. Read-outs that look alike come from different tables or passages of the source.

How the values were obtained:
Kinetic solubility = assay type: physicochemical; details: kinetic from dmso stock
B cell lymphoma 6 (BCL6) = molecular target: T1, B cell lymphoma 6 (BCL6) (Homo sapiens, UniProt P41182); test: HiBiT cellular degradation assay in SU-DHL-4 cells; assay type: cell-based; details: for DC50: concentration to reach 50% degradation of endogenous SmBiT-tagged BCL6, SU-DHL-4 cells, 24 hours of compound treatment
T1 construct: Endogenous B cell lymphoma 6 (BCL6) was tagged with the 11-amino acid Small BiT (SmBiT); endogenous in cells; host or cells: SU-DHL-4 (CRISPR/Cas9 knock-in, single cell clone)
Experimental: DC50 (concentration to reach 50% degradation) values were determined from a cellular degradation assay (HiBiT, Promega™) in Su-DHL-4 cells (Table 1). Endogenous B cell lymphoma 6 (BCL6) was tagged with the 11-amino acid Small BiT (SmBiT) through clustered regularly interspaced short palindromic repeats (CRISPR)/CRISPR-associated protein 9 (Cas9) gene editing and single cell clone selection. After 24 hours of compound treatment, cells were lysed and incubated with Large BiT (LgBiT) protein to reconstitute intact nanoluciferase. Substrate was then added and relative luciferase units were measured. Degradation levels for each treatment were taken as a percentage compared to the control, 100% DMSO (Prism).

[1] = Metabolic stability in human liver microsome; assay type: in vitro ADME; details: pH 7.4; human liver microsomes with NADPH, 37° C., 0-60 min
Experimental: • K2HPO4 was dissolved in water to a final concentration of 50 mM, and then adjusted pH to 7.4 with HCl and filtered through a 0.22 μm filter.
• 1 mg/mL stock of terfenadine/tolbutamide with DMSO was prepared, and then made into quenching solution (5/10 ng/mL terfenadine/tolbutamide) with can.
• 10 mM test compound stock with DMSO was prepared, and then made into 200 μM working solution with DMSO.
• 10 mM control compound (dextromethorphan) stock with DMSO was prepared, and then made into 200 μM working solution with DMSO.
• Liver microsomes were thawed in 37° C. water bath, and then made into 0.63 mg/mL liver microsomes working solution with phosphate buffer.
• 5 mM NADPH working solution was prepared with phosphate buffer.
• a) 1.5 μL test compound/control compound working solution was added to 238.5 μL liver microsome (n=1). • b) The solution was pre-incubated at 37° C. for 5 min. • c) The reaction was started by adding 60 μL NADPH working solution. • d) At each time point (0, 5, 15, 30 and 60 min), 30 μL reaction mixture was removed and added to 300 μL quenching solution. • e) All samples were centrifuged at 4,000 rpm at 4° C. for 15 min, then 100 μL of supernatant was transferred with 100 μL water for LC-MS/MS analysis.

[2] = aqueous buffer, 50 mM phosphate buffer pH 7.4, 24 hours at room temperature, read-out: Kinetic solubility @pH 7.4
[3] = FaSSIF, read-out: Kinetic solubility (FaSSIF)
[4] = FeSSIF, read-out: Kinetic solubility (FeSSIF)

solubility kinetic at 24 h (Kinetic solubility; [2])	DC50 (B cell lymphoma 6 (BCL6))	microsomal CLint at 1 µM [1]	solubility kinetic at 24 h (Kinetic solubility; [3])	solubility kinetic at 24 h (Kinetic solubility; [4])	BCL6 degrader status (in words) (B cell lymphoma 6 (BCL6); conclusion drawn from Table 1)	SMILES
266 µM (≈ 139 µg/mL)	105 nM	< 6.1 µL/min/mg	–	–	–	C[C@@H]1CN(c2ncc(Cl)c(Nc3ccc4c(c3)n(CCC(C)(C)O)c(=O)n4C)n2)C[C@H](CN)C1(F)F (single isomer, unassigned) [Compound 2a]
< 1.56 µM	2 nM	< 6.1 µL/min/mg	6.35 µM (≈ 3.49 µg/mL)	113 µM (≈ 62.2 µg/mL)	–	CNC(=O)COc1cc2cc(Nc3nc(N4C[C@H](CCN)C(F)(F)[C@H](C)C4)ncc3Cl)ccc2n(C)c1=O (single isomer, unassigned) [Compound 51a]
108 µM (≈ 55.1 µg/mL)	20 nM	< 6.1 µL/min/mg	208 µM (≈ 106 µg/mL)	232 µM (≈ 118 µg/mL)	degraders of BCL6	C[C@@H]1CN(c2ncc(Cl)c(Nc3ccc4c(c3)n(CCC(C)(C)O)c(=O)n4C)n2)C[C@H](N)C1(F)F [Compound 1, 5-[[2-[(3S,5R)-3-Amino-4,4-difluoro-5-methyl-1-piperidyl]-5-chloro-pyrimidin-4-yl]amino]-3-(3-hydroxy-3-methyl-butyl)-1-methyl-benzimidazol-2-one]

The next lines start with the compound.

SMILES	solubility kinetic at 24 h (Kinetic solubility; [2])	DC50 (B cell lymphoma 6 (BCL6))	microsomal CLint at 1 µM [1]	solubility kinetic at 24 h (Kinetic solubility; [3])	solubility kinetic at 24 h (Kinetic solubility; [4])	BCL6 degrader status (in words) (B cell lymphoma 6 (BCL6); conclusion drawn from Table 1)
CNC(=O)COc1cc2cc(Nc3nc(N4C[C@H](C)C[C@H](C)C4)ncc3Cl)ccc2n(C)c1=O [BI-3802]	< 1.56 µM	5 nM	23.8 µL/min/mg	2.97 µM (≈ 1.44 µg/mL)	11.3 µM (≈ 5.48 µg/mL)	–
C[C@@H]1CN(c2ncc(Cl)c(Nc3ccc4c(c3)n(CCC(C)(C)O)c(=O)n4C)n2)C[C@H](C)C1(F)F [CCT-369260]	< 1.56 µM	–	12.3 µL/min/mg	2.92 µM (≈ 1.49 µg/mL)	216 µM (≈ 110 µg/mL)	–
CNC(=O)COc1cc2cc(Nc3nc(N4C[C@@H](C)C(F)(F)[C@@H](C)C4)ncc3Cl)ccc2n(C)c1=O [Cmp A]	< 1.56 µM	5 nM	< 3.7 µL/min/mg	< 1.56 µM	1.82 µM (≈ 0.948 µg/mL)	–
C[C@@H]1C[C@H](C)CN(c2ncc(Cl)c(Nc3ccc4c(c3)n(CCC(C)(C)O)c(=O)n4C)n2)C1 [Cmp B]	< 1.56 µM	–	30 µL/min/mg	< 1.56 µM	213 µM (≈ 101 µg/mL)	–
